Source: the supplement of paper PMC10307832

What was measured:
Assay in all cases: relative viability (nuclei count vs DMSO), 5 days (fraction); higher = more cells survive
[1] = compound: C1=CC=C2C(=C1)C=CC(=C2SSC3=C(C=CC4=CC=CC=C43)O)O [IPA-3]
In short: (§1)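 For viability, nuclei in each treated well were divided by nuclei in vehicle wells and the median across plates was taken. Lung cancer cell lines in 1536-well plates were pinned with five library-drug doses (not always all listed) spaced by √10, cultured 5 days without medium change, and imaged at 4× after Hoechst staining, with plates passing only at control CV below 25% and at least one doubling.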

[2] = compound: Cc1ccc(-n2nc(C(C)(C)C)cc2NC(=O)Nc2ccc(OCCN3CCOCC3)c3ccccc23)cc1 [Doramapimod]
In short: as §1

[3] = compound: Cn1c(Nc2ccc(C(F)(F)F)cc2)nc2cc(Oc3ccnc(-c4ncc(C(F)(F)F)[nH]4)c3)ccc21 [RAF265]
In short: as §1

[4] = compound: Cc1ccc(-n2nc(C(C)(C)C)cc2NC(=O)Nc2ccc(OCCN3CCOCC3)c3ccccc23)cc1 [Doramapimod] + Cc1nc(Nc2ncc(C(=O)Nc3c(C)cccc3Cl)s2)cc(N2CCN(CCO)CC2)n1 [Dasatinib] (partner 0.075 µM)
In short: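 For relative viability, nuclei counts in treated wells were divided by those in vehicle wells. Lung cancer cell lines had been pin-tool dosed in 1536-well plates the day after seeding and cultured for 5 days, then fixed and stained in one step (final 0.05% Triton X-100, 1% formaldehyde, 1 ug/ml Hoechst) and imaged at 4×. Doses were one drug alone or a fixed anchor-drug dose plus five library-drug doses (not always all listed) in √10 steps, and values are duplicate-plate medians.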

Cell Line	relative viability ([1]; 0.2 µM)	relative viability ([1]; 0.6325 µM)	relative viability ([1]; 2 µM)	relative viability ([1]; 6.325 µM)	relative viability ([1]; 20 µM)	relative viability ([2]; 0.02 µM)	relative viability ([2]; 0.06325 µM)	relative viability ([2]; 0.2 µM)	relative viability ([2]; 0.6325 µM)	relative viability ([2]; 2 µM)	relative viability ([3]; 0.01 µM)	relative viability ([3]; 0.03162 µM)	relative viability ([3]; 0.1 µM)	relative viability ([3]; 0.3162 µM)	relative viability ([3]; 1 µM)	relative viability ([4]; first compound 0.02 µM)	relative viability ([4]; first compound 0.06325 µM)	relative viability ([4]; first compound 0.2 µM)	relative viability ([4]; first compound 0.6325 µM)	relative viability ([4]; first compound 2 µM)
NCI-H1395	1.04	0.947	0.879	0.918	1.04	1.01	1.18	1.07	0.94	0.831	1.03	0.866	0.899	0.774	0.689	0.413	0.433	0.401	0.546	0.363
NCI-H1437	1.13	1.01	0.994	1.04	1.08	1.05	1.05	0.985	1.07	0.948	1.02	0.99	1.01	1.03	0.954	0.466	0.459	0.437	0.596	0.323
NCI-H1563	1.09	0.959	1.01	1.1	1.17	0.996	0.996	1.11	1.28	1.06	1.06	1.05	1.01	1.03	0.932	0.437	0.478	0.44	0.82	0.421
NCI-H1623	1.07	0.943	0.971	0.951	0.993	0.986	0.982	0.944	0.775	0.88	1.06	0.945	1.09	0.456	0.798	0.534	0.522	0.497	0.495	0.521
NCI-H1650	1.13	0.787	0.931	1.01	1	0.998	0.99	1.17	1.2	0.966	1.09	0.904	1.11	0.75	0.765	0.366	0.294	0.338	0.402	0.217
NCI-H1651	1.18	0.952	1.03	1.02	1.08	0.938	0.934	1.03	1.1	0.968	1	1	0.961	0.901	0.785	0.481	0.458	0.449	0.54	0.32
NCI-H1666	1.15	0.978	1.02	1.08	1.12	1.06	1.03	1	1.11	1.01	1.07	1.01	1.01	1.01	0.795	0.889	0.881	0.876	1.14	0.87
NCI-H1734	1.22	1	0.972	0.992	0.908	0.949	0.855	0.868	1.02	0.769	1.05	0.832	0.87	0.738	0.521	0.443	0.405	0.426	0.509	0.39
NCI-H1755	1.08	0.922	1.04	1.01	1.12	0.966	0.958	1.03	0.988	0.997	1.1	1.01	0.984	0.889	0.638	0.458	0.438	0.369	0.4	0.344
NCI-H1792	1.32	0.794	0.952	0.809	1.08	0.954	0.869	0.971	0.913	0.715	0.893	0.73	0.648	0.246	0.249	0.727	0.645	0.713	0.645	0.654
NCI-H1793	1.14	0.768	0.884	1.09	1.04	0.894	0.843	0.896	0.94	0.884	1.1	0.856	0.731	0.321	0.48	0.335	0.379	0.368	0.36	0.344
NCI-H1915	1.1	0.997	0.989	0.96	1.01	0.986	0.994	1.04	0.99	0.885	0.987	0.915	0.757	0.489	0.3	0.304	0.327	0.316	0.354	0.307
NCI-H1944	1.05	0.897	0.953	1.11	0.955	0.891	0.994	0.935	1.19	0.878	1.06	1.13	0.972	0.755	0.667	0.213	0.231	0.193	0.232	0.216
